Earlier results as cited in PMC7395068, “The evolution of strategies to minimise the risk of human drug-induced liver injury (DILI) in drug discovery and development” (Archives of Toxicology, 2020).
Like-named read-outs stand apart in the source and are kept apart here.

Assays:
HepG2 cells [1] = conditions: cited from earlier work
human hepatocytes = conditions: cited from earlier work
[2] = cited from earlier work
[3] = test system: isolated mouse liver mitochondria; conditions: cited from earlier work
[4] = cited from earlier work; remark: listed apart in the source
HepG2 cells [5] = conditions: In vitro Assay; ref Persson 2013; cited from earlier work
[6] = test system: THLE or HepG2 cells, isolated mitochondria, BSEP; conditions: cited from earlier work
[7] = test system: primary human hepatocytes, NIH3T3 fibroblasts, BSEP, CYP3A4; conditions: In vitro Assay; ref Schadt 2015; cited from earlier work
[8] = In vitro Assay, ref O'Brien 2006
[9] = In vitro Assay, ref Porceddu 2012

Structure (SMILES)	Structural based (HCI) (HepG2 cells [1]; [8])	Structural based (HCI) (human hepatocytes; In vitro Assay, ref Xu 2008)	In vivo DILI ([2]; ref O'Brien 2006)	In vivo DILI ([2]; ref Xu 2008)	in vitro data EC2<=1x Cmax [3, 9]	DILI +VE (5-8), DILI -VE (-4) ([4]; ref Chen 2016)	DILI severity category ([4]; ref Chen 2016)	Cluser analysis (HepG2 cells [5])	Structural based (HCI) (HepG2 cells [5])	In vivo DILI ([2]; ref Persson 2013)	further results
CCCCN1CCCCC1C(=O)Nc1c(C)cccc1C (centres unmarked) [bupivacaine]	+VE (lowest HCI endpoint IC50 (or in the absence of dose–response < 100 µM) < 30 × total human plasma exposure levels (Cmax.tot))	-VE	-VE	-VE	-VE	–	–	–	–	–	In vivo DILI ([2]; ref Porceddu 2012): +VE; in vitro data EC20<=2uM [3, 9]: -VE
C[C@@](Cc1ccc(O)c(O)c1)(NN)C(=O)O [carbidopa]	-VE	-VE	-VE	-VE	–	-VE	Ambiguous DILI-concern	-VE	-VE	-VE	Partition Hybrid HRM Score ([6]; In vitro Assay, ref Aleo 2019): -VE; Ro2 Hybrid HRM Score ([6]; In vitro Assay, ref Aleo 2019): -VE
COc1cc(N)c(Cl)cc1C(=O)NC1CCN(CCCOc2ccc(F)cc2)CC1OC (centres unmarked) [cisapride]	+VE	-VE	-VE	-VE	–	–	–	-VE	-VE	-VE	In vivo DILI ([2]; […]): -VE
C[N+](C)(C)CCOP(=O)(O)OP(=O)([O-])OC[C@H]1O[C@@H](n2ccc(N)nc2=O)[C@H](O)[C@@H]1O [citicoline]	+VE (lowest HCI endpoint IC50 (or in the absence of dose–response < 100 µM) < 30 × total human plasma exposure levels (Cmax.tot))	–	-VE	–	–	–	–	-VE	-VE	-VE	–
CCOC(=O)C(C)(C)Oc1ccc(Cl)cc1 [clofibrate]	+VE	–	+VE	–	–	+VE	vLess-DILI-Concern	-VE	-VE	+VE	Partition Hybrid HRM Score ([6]; In vitro Assay, ref Aleo 2019): +VE; Ro2 Hybrid HRM Score ([6]; In vitro Assay, ref Aleo 2019): +VE; In vivo DILI ([2]; […]): -VE; In vivo DILI ([2]; ref Aleo 2019): +VE
COc1cccc2c1C(=O)c1c(O)c3c(c(O)c1C2=O)C[C@@](O)(C(=O)CO)C[C@@H]3O[C@H]1C[C@H](N)[C@H](O)[C@H](C)O1 [doxorubicin]	+VE	–	+VE	–	+VE	+VE	vLess-DILI-Concern	–	–	–	Cellular toxicity (3T3 cells) [7]: +VE; GSH adduct HML [7]: -VE; Hepatocyte cellular toxicity [7]: -VE; MitoTox 3T3 [7]: -VE; TDI CYP3A4 [7]: -VE; hBSEP inhibition [7]: -VE; In vivo DILI ([2]; […]): +VE; In vivo DILI ([2]; ref Porceddu 2012): +VE; In vivo DILI ([2]; ref Schadt 2015): -VE; in vitro data EC20<=2uM [3, 9]: +VE
O=C1Nc2ccc(Cl)cc2[C@@](C#CC2CC2)(C(F)(F)F)O1 [efavirenz]	+VE (lowest HCI endpoint IC50 (or in the absence of dose–response < 100 µM) < 30 × total human plasma exposure levels (Cmax.tot))	–	+VE	–	–	+VE	vMost-DILI-Concern	+VE	+VE	+VE	–
CNC(=O)Oc1ccc2c(c1)[C@]1(C)CCN(C)[C@@H]1N2C [eserine]	+VE (lowest HCI endpoint IC50 (or in the absence of dose–response < 100 µM) < 30 × total human plasma exposure levels (Cmax.tot))	-VE	-VE	-VE	–	–	–	-VE	-VE	-VE	–
O=[N+]([O-])O[C@H]1CO[C@H]2[C@@H]1OC[C@H]2O[N+](=O)[O-] [isosorbide dinitrate]	+VE (lowest HCI endpoint IC50 (or in the absence of dose–response < 100 µM) < 30 × total human plasma exposure levels (Cmax.tot))	–	-VE	–	–	-VE	vNo-DILI-Concern	-VE	-VE	-VE	–
O=C(CCNNC(=O)c1ccncc1)NCc1ccccc1 [nialamide]	+VE (lowest HCI endpoint IC50 (or in the absence of dose–response < 100 µM) < 30 × total human plasma exposure levels (Cmax.tot))	–	-VE	–	–	+VE	vMost-DILI-Concern	-VE	-VE	-VE	–
CO[C@@H]1[C@@H](OC(N)=O)[C@@H](O)[C@H](Oc2ccc3c(O)c(NC(=O)c4ccc(O)c(CC=C(C)C)c4)c(=O)oc3c2C)OC1(C)C [novobiocin]	-VE	+VE	+VE	+VE	-VE	–	–	-VE	-VE	+VE	In vivo DILI ([2]; ref Porceddu 2012): +VE; in vitro data EC20<=2uM [3, 9]: +VE
CC[N+](C)(CC)CCOC(=O)C(O)(c1ccccc1)C1CCCCC1 (centres unmarked) [oxyphenonium]	-VE	-VE	-VE	-VE	–	–	–	-VE	-VE	-VE	–
CC[C@H](C)C(=O)O[C@H]1C[C@H](O)C=C2C=C[C@H](C)[C@H](CC[C@@H](O)C[C@@H](O)CC(=O)O)[C@H]21 [pravastatin]	-VE	–	+VE	–	-VE	+VE	vLess-DILI-Concern	–	–	–	Partition Hybrid HRM Score ([6]; In vitro Assay, ref Aleo 2019): +VE; Ro2 Hybrid HRM Score ([6]; In vitro Assay, ref Aleo 2019): -VE; In vivo DILI ([2]; […]): -VE; In vivo DILI ([2]; ref Aleo 2019): +VE; In vivo DILI ([2]; ref Porceddu 2012): +VE; in vitro data EC20<=2uM [3, 9]: -VE
Cc1ncc(C[n+]2csc(CCO)c2C)c(N)n1 [thiamine]	+VE (lowest HCI endpoint IC50 (or in the absence of dose–response < 100 µM) < 30 × total human plasma exposure levels (Cmax.tot))	–	-VE	–	–	-VE	vNo-DILI-Concern	-VE	-VE	-VE	–
CC1(C)O[C@@H]2[C@@H](CO[C@@]3(COS(N)(=O)=O)OC(C)(C)O[C@@H]23)O1 [topiramate]	+VE (lowest HCI endpoint IC50 (or in the absence of dose–response < 100 µM) < 30 × total human plasma exposure levels (Cmax.tot))	–	-VE	–	–	+VE	vLess-DILI-Concern	-VE	-VE	-VE	–
Cc1cn([C@H]2C[C@H](N=[N+]=[N-])[C@@H](CO)O2)c(=O)[nH]c1=O [zidovudine]	–	–	–	–	+VE	–	–	–	–	–	DILI severity category ([4]; in vivo): vMost-DILI-Concern; Structural based (HCI) (HepG2 cells [1]): +VE; Structural based (HCI) (human hepatocytes): -VE; Partition Hybrid HRM Score [6]: -VE; Ro2 Hybrid HRM Score [6]: -VE; in vitro data EC20<=2uM [3]: -VE
